Measured values as given in ChEMBL document CHEMBL1932997, “Identification of oxazolidinediones and thiazolidinediones as potent 17β-hydroxysteroid dehydrogenase type 3 inhibitors” (Bioorg Med Chem Lett, 2012).
pIC50: −log10 of the molar value. Active and inactive are the calls of the source. The calls are words filed in the database; no cut-off is given here.

Legend:
[1] = target: T1, 17-beta-hydroxysteroid dehydrogenase type 3 (Homo sapiens, UniProt P37058); experiment: Inhibition of human 17beta-HSD3 expressed in HeLa cells assessed as conversion of 4-androstene-3,17-dione to testosterone; assay type: cell-based; details: for pIC50: read-out: IC50; for IC50: hela
T1 sequence (P37058 whole entry): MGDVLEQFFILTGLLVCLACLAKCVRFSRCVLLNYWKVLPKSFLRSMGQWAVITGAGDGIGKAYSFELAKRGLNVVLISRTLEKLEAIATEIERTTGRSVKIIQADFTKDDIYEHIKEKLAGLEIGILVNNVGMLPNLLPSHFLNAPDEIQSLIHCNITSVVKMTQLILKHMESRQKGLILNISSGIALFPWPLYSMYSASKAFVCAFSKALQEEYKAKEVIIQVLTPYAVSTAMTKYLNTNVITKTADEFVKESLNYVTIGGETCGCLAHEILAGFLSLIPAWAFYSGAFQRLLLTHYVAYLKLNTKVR

[2] = target: T2, 17-beta-hydroxysteroid dehydrogenase type 1 (Homo sapiens) (UniProt P14061); experiment: Inhibition of 17beta-HSD1 expressed in HeLa cells assessed as conversion of estrone into estradiol; assay type: cell-based
T2 sequence (whole entry): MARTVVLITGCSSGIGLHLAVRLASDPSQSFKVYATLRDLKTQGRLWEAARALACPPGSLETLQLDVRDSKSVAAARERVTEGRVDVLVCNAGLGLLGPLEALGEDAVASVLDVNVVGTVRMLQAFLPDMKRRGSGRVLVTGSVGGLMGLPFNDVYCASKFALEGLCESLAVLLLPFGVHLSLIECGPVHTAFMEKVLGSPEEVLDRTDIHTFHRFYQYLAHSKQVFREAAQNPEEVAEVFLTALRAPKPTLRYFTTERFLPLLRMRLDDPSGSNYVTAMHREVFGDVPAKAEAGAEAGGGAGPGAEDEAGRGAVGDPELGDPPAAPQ

[3] = Inhibition of 17beta-HSD3 in marmoset testes homogenate; assay type: tissue-based, Callitrichinae sp., Testis
[4] = target: T3, 17-beta-hydroxysteroid dehydrogenase type 2 (Homo sapiens) (UniProt P37059); experiment: Inhibition of 17beta-HSD2 expressed in HeLa cells assessed as conversion of estrone into estradiol; assay type: cell-based
T3 sequence (whole entry): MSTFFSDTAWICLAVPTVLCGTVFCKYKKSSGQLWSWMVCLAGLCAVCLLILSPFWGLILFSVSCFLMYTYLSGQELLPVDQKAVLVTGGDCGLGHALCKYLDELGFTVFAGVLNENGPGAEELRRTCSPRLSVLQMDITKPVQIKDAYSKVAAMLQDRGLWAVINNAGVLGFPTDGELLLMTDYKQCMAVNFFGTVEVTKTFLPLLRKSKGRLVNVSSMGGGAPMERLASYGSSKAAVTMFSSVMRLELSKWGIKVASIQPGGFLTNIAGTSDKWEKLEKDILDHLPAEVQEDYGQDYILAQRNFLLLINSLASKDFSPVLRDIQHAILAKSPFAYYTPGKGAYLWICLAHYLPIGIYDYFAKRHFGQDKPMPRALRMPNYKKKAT

[5] = target: T4, Androgen receptor (Homo sapiens) (UniProt P10275); experiment: Antagonist activity at androgen receptor by transcriptional reporter gene assay; assay type: functional
T4 sequence (whole entry): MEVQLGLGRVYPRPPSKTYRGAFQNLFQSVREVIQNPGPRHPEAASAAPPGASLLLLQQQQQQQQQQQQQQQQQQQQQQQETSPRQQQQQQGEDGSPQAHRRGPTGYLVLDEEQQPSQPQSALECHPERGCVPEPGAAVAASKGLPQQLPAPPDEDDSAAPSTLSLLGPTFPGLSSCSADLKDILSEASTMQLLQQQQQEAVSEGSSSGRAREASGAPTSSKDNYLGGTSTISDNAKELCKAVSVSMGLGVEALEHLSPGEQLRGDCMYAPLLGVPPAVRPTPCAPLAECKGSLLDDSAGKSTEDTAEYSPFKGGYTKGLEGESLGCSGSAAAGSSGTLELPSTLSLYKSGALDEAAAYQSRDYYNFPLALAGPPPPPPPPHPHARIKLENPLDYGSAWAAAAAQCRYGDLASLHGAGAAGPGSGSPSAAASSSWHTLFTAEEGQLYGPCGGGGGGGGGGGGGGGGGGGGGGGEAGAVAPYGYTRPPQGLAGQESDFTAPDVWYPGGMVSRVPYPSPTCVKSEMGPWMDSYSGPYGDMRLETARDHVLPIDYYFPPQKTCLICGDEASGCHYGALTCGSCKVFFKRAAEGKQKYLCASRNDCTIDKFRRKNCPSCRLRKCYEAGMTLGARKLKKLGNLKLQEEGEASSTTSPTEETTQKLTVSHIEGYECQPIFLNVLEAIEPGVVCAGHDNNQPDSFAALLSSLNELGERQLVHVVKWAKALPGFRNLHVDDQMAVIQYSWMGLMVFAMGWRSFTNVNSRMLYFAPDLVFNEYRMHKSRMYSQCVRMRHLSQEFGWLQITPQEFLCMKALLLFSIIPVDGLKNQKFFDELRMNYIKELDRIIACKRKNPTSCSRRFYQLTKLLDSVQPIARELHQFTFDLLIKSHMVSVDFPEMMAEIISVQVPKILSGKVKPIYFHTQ

[6] = target: T1, 17-beta-hydroxysteroid dehydrogenase type 3; experiment: Inhibition of 17beta-HSD3 in human testes homogenate; assay type: tissue-based, Testis
[7] = target: T5, Estrogen receptor (Homo sapiens) (UniProt P03372); experiment: Agonist activity at ERalpha by transcriptional reporter gene assay; assay type: functional
T5 sequence (whole entry): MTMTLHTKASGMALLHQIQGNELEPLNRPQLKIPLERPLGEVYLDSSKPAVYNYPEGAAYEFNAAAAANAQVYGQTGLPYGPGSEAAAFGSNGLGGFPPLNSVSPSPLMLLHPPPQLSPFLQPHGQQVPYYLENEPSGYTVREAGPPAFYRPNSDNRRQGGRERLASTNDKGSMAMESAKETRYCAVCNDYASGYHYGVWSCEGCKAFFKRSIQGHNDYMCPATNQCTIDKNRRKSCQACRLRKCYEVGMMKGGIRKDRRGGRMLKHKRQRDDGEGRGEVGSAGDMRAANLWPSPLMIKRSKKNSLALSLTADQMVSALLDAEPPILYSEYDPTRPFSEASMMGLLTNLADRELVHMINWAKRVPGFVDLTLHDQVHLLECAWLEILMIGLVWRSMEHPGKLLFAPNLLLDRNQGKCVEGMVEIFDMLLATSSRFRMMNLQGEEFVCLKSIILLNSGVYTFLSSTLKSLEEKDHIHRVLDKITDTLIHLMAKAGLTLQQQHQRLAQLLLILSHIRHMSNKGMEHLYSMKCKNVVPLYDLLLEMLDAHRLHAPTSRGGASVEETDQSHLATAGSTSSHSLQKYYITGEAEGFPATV

[8] = target: T5, Estrogen receptor (Homo sapiens); experiment: Antagonist activity at ERalpha by transcriptional reporter gene assay; assay type: functional
[9] = target: T6, 17-beta-hydroxysteroid dehydrogenase type 3 (Mus musculus, UniProt P70385); experiment: Inhibition of 17beta-HSD3 in mouse testes homogenate; assay type: tissue-based, Testis
T6 sequence (P70385 whole entry): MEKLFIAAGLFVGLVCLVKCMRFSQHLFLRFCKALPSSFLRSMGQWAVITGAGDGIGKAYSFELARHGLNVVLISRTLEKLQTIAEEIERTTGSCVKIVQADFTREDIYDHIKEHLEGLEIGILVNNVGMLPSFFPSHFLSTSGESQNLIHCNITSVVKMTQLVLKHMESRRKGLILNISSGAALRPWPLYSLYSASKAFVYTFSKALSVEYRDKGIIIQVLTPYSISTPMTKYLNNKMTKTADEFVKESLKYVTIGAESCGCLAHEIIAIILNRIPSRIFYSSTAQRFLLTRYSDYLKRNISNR

[10] = target: T7, Glucocorticoid receptor (Homo sapiens) (UniProt P04150); experiment: Antagonist activity at glucocorticoid receptor by transcriptional reporter gene assay; assay type: functional
T7 sequence (whole entry): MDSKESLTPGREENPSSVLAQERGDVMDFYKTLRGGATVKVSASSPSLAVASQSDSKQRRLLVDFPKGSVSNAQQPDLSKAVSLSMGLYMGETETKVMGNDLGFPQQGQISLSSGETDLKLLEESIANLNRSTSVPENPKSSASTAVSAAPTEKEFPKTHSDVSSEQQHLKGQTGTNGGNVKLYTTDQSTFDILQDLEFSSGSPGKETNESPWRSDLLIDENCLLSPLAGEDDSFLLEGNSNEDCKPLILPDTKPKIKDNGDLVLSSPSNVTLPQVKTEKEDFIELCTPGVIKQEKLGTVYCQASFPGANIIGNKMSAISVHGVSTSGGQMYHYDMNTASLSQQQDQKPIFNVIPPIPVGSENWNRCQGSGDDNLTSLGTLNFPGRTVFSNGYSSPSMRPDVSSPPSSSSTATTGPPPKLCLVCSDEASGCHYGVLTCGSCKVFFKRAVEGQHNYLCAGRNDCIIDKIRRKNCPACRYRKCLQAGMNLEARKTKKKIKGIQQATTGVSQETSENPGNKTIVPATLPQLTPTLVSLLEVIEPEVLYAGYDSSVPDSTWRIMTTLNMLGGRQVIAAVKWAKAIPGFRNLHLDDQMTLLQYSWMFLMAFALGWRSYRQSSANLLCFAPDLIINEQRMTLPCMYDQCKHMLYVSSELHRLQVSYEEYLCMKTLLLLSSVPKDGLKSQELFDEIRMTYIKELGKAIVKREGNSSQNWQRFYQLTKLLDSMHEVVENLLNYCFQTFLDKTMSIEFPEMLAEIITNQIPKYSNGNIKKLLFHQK

[11] = target: T8, 17-beta-hydroxysteroid dehydrogenase type 3 (Homo sapiens) (UniProt P37058); details: HeLa, 10 uM
T8 sequence (whole entry): T1 sequence (P37058 whole entry)
Description: Inhibition of human 17beta-HSD3 activity expressed in HeLa cells assessed as conversion of 4-androstene-3,17-dione to testosterone at 10 uM

[12] = target: T7, Glucocorticoid receptor (Homo sapiens); experiment: Agonist activity at glucocorticoid receptor by transcriptional reporter gene assay; assay type: functional
[13] = target: T4, Androgen receptor (Homo sapiens); experiment: Agonist activity at androgen receptor by transcriptional reporter gene assay; assay type: functional

Question: With `COc1ccc(N2C(=O)O/C(=C\c3ccc(O)c(Br)c3)C2=O)cc1` as the compound, how does the pIC50 [1] read?
Answer: 7.64

Question: For `COc1ccc(N2C(=O)/C(=C/c3ccc(O)c(Br)c3)N(C)C2=O)cc1`, which IC50 [1] is on record?
Answer: Not Active

Question: Which results are given for `COc1ccc(N2C(=O)/C(=C/c3ccc(O)c(Br)c3)SC2=S)cc1`?
Answer: inhibition [2]: inactive; pIC50 [3]: 9.22; inhibition [4]: inactive; Activity [5]: inactive; pIC50 [6]: 8.22; Activity [7]: inactive; Activity [8]: inactive; pIC50 [9]: 7.40; Activity [10]: inactive; pIC50 [1]: 7.85; inhibition [11]: 23%; Activity [12]: inactive; Activity [13]: inactive

Question: With `COc1ccc(-n2cc(Cc3ccc(O)c(Br)c3)sc2=O)cc1` as the compound, how does the pIC50 [1] read?
Answer: 6.24

Question: With `COc1ccc(N2C/C(=C/c3ccc(O)c(Br)c3)OC2=O)cc1` as the compound, how does the pIC50 [1] read?
Answer: 6.17

Question: With `COc1ccc(N2C(=O)/C(=C/c3ccc(O)c(Br)c3)OC2=S)cc1` as the compound, how does the pIC50 [1] read?
Answer: 7.89

Question: With `COc1ccc(N2C(=O)OC(Cc3ccc(O)c(Br)c3)C2=O)cc1` (configuration not stated) as the compound, how does the pIC50 [1] read?
Answer: 6.52

Question: With `COc1ccc(-n2cnn(Cc3ccc(O)c(Br)c3)c2=O)cc1` as the compound, how does the pIC50 [1] read?
Answer: 5.24

Question: With `COc1ccc(N2C(=O)S/C(=C\c3ccc(O)c(Br)c3)C2=O)cc1` as the compound, how does the pIC50 [1] read?
Answer: 7.05

Question: Which IC50 [1] does the source give for `COc1ccc(N2C(=O)N/C(=C\c3ccc(O)c(Br)c3)C2=O)cc1` here?
Answer: Not Active
